# Tested on: KM12 cells
# Test: Cell viability assay (CellTiter-Glo) in KM12 cells
# Type: cell-based
# Conditions: Homo sapiens, 72 h; Table 2; KM12 cell viability, CellTiter-Glo, 3 days; read-out: IC50
row,SMILES,IC50
1,"Cc1ncsc1-c1ccc(CNC(=O)[C@@H]2C[C@@H](O)CN2C(=O)[C@@H](NC(=O)CCCC(=O)N2CCN(c3ccc(C(=O)Nc4n[nH]c5ccc(Cc6cc(F)cc(F)c6)cc45)c(NC4CCOCC4)c3)CC2)C(C)(C)C)cc1 [CPD-036, (2S,4R)-1-((S)-2-(5-(4-(4-((5-(3,5-Difluorobenzyl)-1H-indazol-3-yl)carbamoyl)-3-((tetrahydro-2H-pyran-4-yl)amino)phenyl)piperazin-1-yl)-5-oxopentanamido)-3,3-dimethylbutanoyl)-4-hydroxy-N-(4-(4-methylthiazol-5-yl)benzyl)pyrrolidine-2-carboxamide]",300 nM
2,"O=C1CCC(N2C(=O)c3cccc(NCCCCC(=O)N4CCN(c5cccc(-c6cnc7ccc(N8CCC[C@@H]8c8cccc(F)c8)nn67)n5)CC4)c3C2=O)C(=O)N1 (stereo partly drawn) [CPD-014, 2-(2,6-Dioxopiperidin-3-yl)-4-((5-(4-(6-(6-((R)-2-(3-fluorophenyl)pyrrolidin-1-yl)imidazo[1,2-b]pyridazin-3-yl)pyridin-2-yl)piperazin-1-yl)-5-oxopentyl)amino)isoindoline-1,3-dione]",7.9 nM
3,"Cc1ncsc1-c1ccc(CNC(=O)[C@@H]2C[C@@H](O)CN2C(=O)[C@@H](NC(=O)CCOCCOCCC(=O)N2CCN(c3cccc(-c4cnc5ccc(N6CCC[C@@H]6c6cccc(F)c6)nn45)n3)CC2)C(C)(C)C)cc1 [CPD-020, (2S,4R)-1-((S)-2-(3-(2-(3-(4-(6-(6-((R)-2-(3-Fluorophenyl)pyrrolidin-1-yl)imidazo[1,2-b]pyridazin-3-yl)pyridin-2-yl)piperazin-1-yl)-3-oxopropoxy)ethoxy)propanamido)-3,3-dimethylbutanoyl)-4-hydroxy-N-(4-(4-methylthiazol-5-yl)benzyl)pyrrolidine-2-carboxamide]",200 nM
4,"Cc1ncsc1-c1ccc(CNC(=O)[C@@H]2C[C@@H](O)CN2C(=O)[C@@H](NC(=O)COCCOCC(=O)N2CCN(c3cccc(-c4cnc5ccc(N6CCC[C@@H]6c6cccc(F)c6)nn45)n3)CC2)C(C)(C)C)cc1 [CPD-002, (2S,4R)-1-((S)-2-(2-(2-(2-(4-(6-(6-((R)-2-(3-Fluorophenyl)pyrrolidin-1-yl)imidazo[1,2-b]pyridazin-3-yl)pyridin-2-yl)piperazin-1-yl)-2-oxoethoxy)ethoxy)acetamido)-3,3-dimethylbutanoyl)-4-hydroxy-N-(4-(4-methylthiazol-5-yl)benzyl)pyrrolidine-2-carboxamide]",> 1000 nM
5,"Cc1ncsc1-c1ccc(CNC(=O)[C@@H]2C[C@@H](O)CN2C(=O)[C@@H](NC(=O)COCC(=O)N2CCN(c3ccc(C(=O)Nc4n[nH]c5ccc(Cc6cc(F)cc(F)c6)cc45)c(NC4CCOCC4)c3)CC2)C(C)(C)C)cc1 [CPD-045, (2S,4R)-1-((S)-2-(2-(2-(4-(4-((5-(3,5-Difluorobenzyl)-1H-indazol-3-yl)carbamoyl)-3-((tetrahydro-2H-pyran-4-yl)amino)phenyl)piperazin-1-yl)-2-oxoethoxy)acetamido)-3,3-dimethylbutanoyl)-4-hydroxy-N-(4-(4-methylthiazol-5-yl)benzyl)pyrrolidine-2-carboxamide]",> 1000 nM

# Same assay, conditions: Homo sapiens, 72 h; Table 3; KM12 cell viability, CellTiter-Glo, 3 days; read-out: IC50
row,SMILES,IC50
1,"O=C1CCC(N2C(=O)c3ccc(NCCOCCOCCOCCC(=O)N4CCN(c5ccc(C(=O)Nc6n[nH]c7ccc(Cc8cc(F)cc(F)c8)cc67)c(NC6CCOCC6)c5)CC4)cc3C2=O)C(=O)N1 (stereo not shown) [TR-146, N-(5-(3,5-Difluorobenzyl)-1H-indazol-3-yl)-4-(4-(3-(2-(2-(2-((2-(2,6-dioxopiperidin-3-yl)-1,3-dioxoisoindolin-5-yl)amino)ethoxy)ethoxy)ethoxy)propanoyl)piperazin-1-yl)-2-((tetrahydro-2H-pyran-4-yl)amino)benzamide]",4.2 nM
2,"O=C(CN1CCN(c2ccc(C(=O)Nc3n[nH]c4ccc(Cc5cc(F)cc(F)c5)cc34)c(NC3CCOCC3)c2)CC1)NCCCCCCCNc1ccc2c(c1)C(=O)N(C1CCC(=O)NC1=O)C2=O (stereo not shown) [TR-157, N-(5-(3,5-Difluorobenzyl)-1H-indazol-3-yl)-4-(4-(2-((7-((2-(2,6-dioxopiperidin-3-yl)-1,3-dioxoisoindolin-5-yl)amino)heptyl)amino)-2-oxoethyl)piperazin-1-yl)-2-((tetrahydro-2H-pyran-4-yl)amino)benzamide]",8.3 nM
3,"O=C1CCC(N2C(=O)c3ccc(/C=C/C(=O)N4CCN(c5cccc(-c6cnc7ccc(N8CCC[C@@H]8c8cccc(F)c8)nn67)n5)CC4)cc3C2=O)C(=O)N1 (stereo partly drawn) [TR-195, 2-(2,6-Dioxopiperidin-3-yl)-5-((E)-3-(4-(6-(6-((R)-2-(3-fluorophenyl)pyrrolidin-1-yl)imidazo[1,2-b]pyridazin-3-yl)pyridin-2-yl)piperazin-1-yl)-3-oxoprop-1-en-1-yl)isoindoline-1,3-dione]",23.6 nM
4,"O=C(CN1CCN(c2ccc(C(=O)Nc3n[nH]c4ccc(Cc5cc(F)cc(F)c5)cc34)c(NC3CCOCC3)c2)CC1)NCCCCCCCNc1cccc2c1C(=O)N(C1CCC(=O)NC1=O)C2=O (stereo not shown) [TR-154, N-(5-(3,5-Difluorobenzyl)-1H-indazol-3-yl)-4-(4-(2-((7-((2-(2,6-dioxopiperidin-3-yl)-1,3-dioxoisoindolin-4-yl)amino)heptyl)amino)-2-oxoethyl)piperazin-1-yl)-2-((tetrahydro-2H-pyran-4-yl)amino)benzamide]",20.8 nM
5,"O=C1CCC(N2C(=O)c3ccc(NC4CN(c5cccc(-c6cnc7ccc(N8CCC[C@@H]8c8cccc(F)c8)nn67)n5)C4)cc3C2=O)C(=O)N1 (stereo partly drawn) [TR-175, 2-(2,6-Dioxopiperidin-3-yl)-5-((1-(6-(6-((R)-2-(3-fluorophenyl)pyrrolidin-1-yl)imidazo[1,2-b]pyridazin-3-yl)pyridin-2-yl)azetidin-3-yl)amino)isoindoline-1,3-dione]",40.8 nM
6,"O=C1CCC(N2C(=O)c3ccc(NC4CCN(c5cccc(-c6cnc7ccc(N8CCC[C@@H]8c8cccc(F)c8)nn67)n5)CC4)cc3C2=O)C(=O)N1 (stereo partly drawn) [TR-174, 2-(2,6-dioxopiperidin-3-yl)-5-((1-(6-(6-((R)-2-(3-fluorophenyl)pyrrolidin-1-yl)imidazo[1,2-b]pyridazin-3-yl)pyridin-2-yl)piperidin-4-yl)amino)isoindoline-1,3-dione]",18.7 nM
7,"O=C(CN1CCN(c2ccc(C(=O)Nc3n[nH]c4ccc(Cc5cc(F)cc(F)c5)cc34)c(NC3CCOCC3)c2)CC1)NCCCCNc1cccc2c1C(=O)N(C1CCC(=O)NC1=O)C2=O (stereo not shown) [TR-155, N-(5-(3,5-Difluorobenzyl)-1H-indazol-3-yl)-4-(4-(2-((4-((2-(2,6-dioxopiperidin-3-yl)-1,3-dioxoisoindolin-4-yl)amino)butyl)amino)-2-oxoethyl)piperazin-1-yl)-2-((tetrahydro-2H-pyran-4-yl)amino)benzamide]",2.9 nM
8,"O=C1CCC(N2Cc3ccc(CCCN4CCN(c5cccc(-c6cnc7ccc(N8CCC[C@@H]8c8cccc(F)c8)nn67)n5)CC4)cc3C2=O)C(=O)N1 (stereo partly drawn) [TR-185, 3-(6-(3-(4-(6-(6-((R)-2-(3-fluorophenyl)pyrrolidin-1-yl)imidazo[1,2-b]pyridazin-3-yl)pyridin-2-yl)piperazin-1-yl)propyl)-1-oxoisoindolin-2-yl)piperidine-2,6-dione]",17.1 nM
9,"O=C1CCC(N2C(=O)c3ccc(NCCC(=O)N4CCN(c5cccc(-c6cnc7ccc(N8CCC[C@@H]8c8cccc(F)c8)nn67)n5)CC4)cc3C2=O)C(=O)N1 (stereo partly drawn) [TR-121, 2-(2,6-Dioxopiperidin-3-yl)-5-((3-(4-(6-(6-((R)-2-(3-fluorophenyl)pyrrolidin-1-yl)imidazo[1,2-b]pyridazin-3-yl)pyridin-2-yl)piperazin-1-yl)-3-oxopropyl)amino)isoindoline-1,3-dione]",2.1 nM

# Same assay, conditions: Homo sapiens, 72 h; Table 4; KM12 cell viability, CellTiter-Glo, 3 days; read-out: IC50
row,SMILES,IC50
1,"O=C1CCC(n2c(=O)n(CCCN3CCN(c4cccc(-c5cnc6ccc(N7CCC[C@@H]7c7cccc(F)c7)nn56)n4)CC3)c3ccccc32)C(=O)N1 (stereo partly drawn) [TR-228, 3-(3-(3-(4-(6-(6-((R)-2-(3-Fluorophenyl)pyrrolidin-1-yl)imidazo[1,2-b]pyridazin-3-yl)pyridin-2-yl)piperazin-1-yl)propyl)-2-oxo-2,3-dihydro-1H-benzo[d]imidazol-1-yl)piperidine-2,6-dione]",56.3 nM
2,"O=C1CCC(N2C[C@H](c3ccc(C#CCN4CCN(c5cccc(-c6cnc7ccc(N8CCC[C@@H]8c8cccc(F)c8)nn67)n5)CC4)cc3)OC2=O)C(=O)N1 (stereo partly drawn) [TR-224, 3-((S)-5-(4-(3-(4-(6-(6-((R)-2-(3-Fluorophenyl)pyrrolidin-1-yl)imidazo[1,2-b]pyridazin-3-yl)pyridin-2-yl)piperazin-1-yl)prop-1-yn-1-yl)phenyl)-2-oxooxazolidin-3-yl)piperidine-2,6-dione]",9.9 nM
3,"O=C1CCC(N2Cc3cc(NC4CN(c5cccc(-c6cnc7ccc(N8CCC[C@@H]8c8cccc(F)c8)nn67)n5)C4)ccc3C2=O)C(=O)N1 (stereo partly drawn) [TR-206, 3-(5-((1-(6-(6-((R)-2-(3-Fluorophenyl)pyrrolidin-1-yl)imidazo[1,2-b]pyridazin-3-yl)pyridin-2-yl)azetidin-3-yl)amino)-1-oxoisoindolin-2-yl)piperidine-2,6-dione]",15.8 nM
4,"O=C1CCC(n2c(=O)n(CCN3CCN(c4cccc(-c5cnc6ccc(N7CCC[C@@H]7c7cccc(F)c7)nn56)n4)CC3)c3ccccc32)C(=O)N1 (stereo partly drawn) [TR-227, 3-(3-(2-(4-(6-(6-((R)-2-(3-Fluorophenyl)pyrrolidin-1-yl)imidazo[1,2-b]pyridazin-3-yl)pyridin-2-yl)piperazin-1-yl)ethyl)-2-oxo-2,3-dihydro-1H-benzo[d]imidazol-1-yl)piperidine-2,6-dione]",23.6 nM

# Same assay, conditions: Homo sapiens, KM12, 72 h
row,SMILES,IC50
1,"Cn1c(=O)n(C2CCC(=O)NC2=O)c2cccc(C#CCN3CCN(c4cccc(-c5cnc6ccc(N7CCC[C@@H]7c7cccc(F)c7)nn56)n4)CC3)c21 (stereo partly drawn) [TR-238, 3-(4-(3-(4-(6-(6-((R)-2-(3-fluorophenyl)pyrrolidin-1-yl)imidazo[1,2-b]pyridazin-3-yl)pyridin-2-yl)piperazin-1-yl)prop-1-yn-1-yl)-3-methyl-2-oxo-2,3-dihydro-1H-benzo[d]imidazol-1-yl)piperidine-2,6-dione]",16 nM

# Source: patent US12065442B2, “Tropomyosin receptor kinase (TRK) degradation compounds and methods of use” (Cullgen (Shanghai), Inc., priority 2018, dated 2024)
